Experimental data published in patent US11427553B2, “Dihydrooxadiazinones” (Bayer Aktiengesellschaft, priority 2017, dated 2022).

What was measured:
HeLa cells = test: Assay 1 cell proliferation measurement (CTG, 72 h), HeLa; assay type: cell-based, human; conditions: Homo sapiens, HeLa; Assay 1, 72 h, Cell Titer Glo; read-out: HeLa IC50 [nM] (Cervical cancer)
In short: (§1)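 Seed cells, incubate overnight at 37 °C; measure baseline viability (CTG, 0 h plate); dose compound in a 10-step 2.5-fold series (max generally 100 nM final, DMSO 0.3%) for 72 h; read CTG luminescence; fit IC50 with 4 parameters.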

SK-MEL-3 cells = test: Assay 1 cell proliferation measurement (CTG, 72 h), SK-MEL-3; assay type: cell-based, human; conditions: Homo sapiens, SK-MEL3; Assay 1, 72 h, Cell Titer Glo; read-out: SK-MEL-3 IC50 [nM] (melanoma)
In short: as §1

human full length PDE3A = human full length PDE3A (Homo sapiens (Human), UniProt Q14432); test: Assay 4 PDE3A enzyme inhibition (3H-cAMP SPA); assay type: biochemical; conditions: Sf9 cell extract
In short: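 Enzyme: Sf9 extract with overexpressed full-length PDE3A; substrate [8-3H]cAMP, 0.025 μCi/well; 60 min, room temperature, Tris/HCl pH 7.5 buffer with MgCl2, EDTA, BSA.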

human full length PDE3B = human full length PDE3B (Homo sapiens (Human), UniProt Q13370); test: Assay 5 PDE3B enzyme inhibition (3H-cAMP SPA); assay type: biochemical; conditions: Sf9 cell extract
In short: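 Inhibition was measured by scintillation proximity using [8-3H]adenosine 3′,5′-cyclic phosphate as substrate and full-length human PDE3B from an Sf9 overexpression extract, run one hour at room temperature at pH 7.5.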

[1] = Assay 6 in vitro metabolic stability in cryopreserved human hepatocytes (CL, Fmax); assay type: in vitro ADME; conditions: 1 μM test compound; for Clblood: hepatic in vivo blood clearance calculated (well-stirred) from half-life in cryopreserved human hepatocytes; for Fmax: maximal oral bioavailability calculated from half-life in cryopreserved human hepatocytes
Protocol: Assay 6 Method for Human Cryo Hepatocytes:
Investigation of In Vitro Metabolic Stability in Cryopreserved Human Hepatocytes (Including Calculation of Hepatic In Vivo Blood Clearance (CL) and Maximal Oral Bioavailability (Fmax))
Cryopreserved Hepatocytes (e.g. purchased from Celsis InVitroTechnologies) were briefly thawed, washed with 45 mL pre-warmed in in vitro GRO HT medium and centrifuged for 5 min at 50×g. The cell pellet was resuspended in 5 ml of Krebs-Henseleit […] (KHB). Cell viability was determined by trypan blue exclusion.
For the metabolic stability assay liver cells were distributed in WME containing 5% FCS to glass vials at a density of 1.0×10^6 vital cells/ml. The test compound was added to a final concentration of 1 μM. During incubation, the hepatocyte suspensions were continuously shaken at 580 rpm and aliquots were taken at 2, 8, 16, 30, 45 and 90 min, to which equal volumes of cold methanol were immediately added. Samples were frozen at −20° C. over night, after subsequently centrifuged for 15 minutes at 3000 rpm and the supernatant was analyzed with an Agilent 1290 HPLC-system with LCMS/MS detection.
The half-life of a test compound was determined from the concentration-time plot. From the half-life the intrinsic clearances were calculated. Together with the additional parameters liver blood flow, amount of liver cells in vivo and in vitro. The hepatic in vivo blood clearance (CL) and the maximal oral bioavailability (Fmax) was calculated.

Chain of human full length PDE3A (Q14432 whole entry): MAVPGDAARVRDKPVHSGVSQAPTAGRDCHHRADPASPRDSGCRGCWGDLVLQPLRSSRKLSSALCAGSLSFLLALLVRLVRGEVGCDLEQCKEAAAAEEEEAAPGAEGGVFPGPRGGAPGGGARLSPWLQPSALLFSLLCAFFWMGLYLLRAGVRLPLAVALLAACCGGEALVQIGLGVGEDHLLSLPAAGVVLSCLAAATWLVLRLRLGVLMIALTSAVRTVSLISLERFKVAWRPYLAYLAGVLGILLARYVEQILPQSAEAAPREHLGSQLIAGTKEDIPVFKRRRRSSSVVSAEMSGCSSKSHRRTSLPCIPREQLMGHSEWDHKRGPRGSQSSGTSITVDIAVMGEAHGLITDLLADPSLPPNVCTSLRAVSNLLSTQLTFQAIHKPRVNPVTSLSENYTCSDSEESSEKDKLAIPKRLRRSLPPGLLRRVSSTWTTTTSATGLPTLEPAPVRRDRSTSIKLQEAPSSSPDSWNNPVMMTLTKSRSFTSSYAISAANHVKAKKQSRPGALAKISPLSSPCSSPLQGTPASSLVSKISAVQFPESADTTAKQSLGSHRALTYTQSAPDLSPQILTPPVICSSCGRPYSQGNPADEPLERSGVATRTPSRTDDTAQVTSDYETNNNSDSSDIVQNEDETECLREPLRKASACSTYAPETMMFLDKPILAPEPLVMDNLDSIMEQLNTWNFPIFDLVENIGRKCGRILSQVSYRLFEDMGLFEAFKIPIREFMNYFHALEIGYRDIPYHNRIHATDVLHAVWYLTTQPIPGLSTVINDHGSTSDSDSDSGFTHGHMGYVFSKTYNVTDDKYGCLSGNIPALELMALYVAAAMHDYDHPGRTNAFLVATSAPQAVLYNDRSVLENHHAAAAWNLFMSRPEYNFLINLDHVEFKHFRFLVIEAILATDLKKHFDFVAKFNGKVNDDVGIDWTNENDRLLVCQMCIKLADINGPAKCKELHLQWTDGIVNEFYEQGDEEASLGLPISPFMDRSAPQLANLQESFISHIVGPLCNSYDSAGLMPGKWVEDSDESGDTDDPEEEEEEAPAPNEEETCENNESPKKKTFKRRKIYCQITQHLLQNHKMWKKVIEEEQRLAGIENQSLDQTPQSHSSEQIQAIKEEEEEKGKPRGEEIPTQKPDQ
Chain of human full length PDE3B (Q13370 whole entry): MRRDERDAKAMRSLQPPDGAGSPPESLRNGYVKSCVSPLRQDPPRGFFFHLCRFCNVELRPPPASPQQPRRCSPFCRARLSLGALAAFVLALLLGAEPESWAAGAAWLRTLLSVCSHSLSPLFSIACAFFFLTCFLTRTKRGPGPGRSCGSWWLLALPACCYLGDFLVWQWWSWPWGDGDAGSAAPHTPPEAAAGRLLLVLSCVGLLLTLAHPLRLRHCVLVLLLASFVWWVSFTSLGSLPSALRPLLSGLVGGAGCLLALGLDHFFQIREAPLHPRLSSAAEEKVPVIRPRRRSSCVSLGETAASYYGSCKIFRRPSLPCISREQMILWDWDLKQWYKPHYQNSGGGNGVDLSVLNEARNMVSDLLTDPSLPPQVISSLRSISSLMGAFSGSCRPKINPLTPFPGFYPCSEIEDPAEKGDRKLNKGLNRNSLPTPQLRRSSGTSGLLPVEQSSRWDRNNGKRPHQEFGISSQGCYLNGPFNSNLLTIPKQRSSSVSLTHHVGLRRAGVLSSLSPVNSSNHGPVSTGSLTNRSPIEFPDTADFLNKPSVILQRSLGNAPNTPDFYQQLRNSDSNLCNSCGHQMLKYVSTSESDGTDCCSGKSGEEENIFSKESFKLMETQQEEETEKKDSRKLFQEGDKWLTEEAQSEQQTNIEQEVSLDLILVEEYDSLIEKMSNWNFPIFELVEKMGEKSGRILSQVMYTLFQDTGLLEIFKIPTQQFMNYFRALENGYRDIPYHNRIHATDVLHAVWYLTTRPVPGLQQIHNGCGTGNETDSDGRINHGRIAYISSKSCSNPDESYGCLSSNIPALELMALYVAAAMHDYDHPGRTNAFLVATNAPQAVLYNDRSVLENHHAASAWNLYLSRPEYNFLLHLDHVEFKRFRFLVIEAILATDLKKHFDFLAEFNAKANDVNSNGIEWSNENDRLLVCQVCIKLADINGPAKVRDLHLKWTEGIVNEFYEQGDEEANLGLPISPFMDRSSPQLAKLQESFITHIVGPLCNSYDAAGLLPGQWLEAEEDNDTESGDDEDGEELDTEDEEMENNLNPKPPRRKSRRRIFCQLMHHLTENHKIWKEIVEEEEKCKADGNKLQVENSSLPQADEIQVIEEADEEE

SMILES	IC50 (HeLa cells)	IC50 (SK-MEL-3 cells)	IC50 (human full length PDE3A)	IC50 (human full length PDE3B)	Clblood [1]	Fmax [1]
Cc1cc(F)ccc1-c1ccc(C2=NNC(=O)OC2)cc1C [Example 9, 5-(4′-Fluoro-2,2′-dimethylbiphenyl-4-yl)-3,6-dihydro-2H-1,3,4-oxadiazin-2-one]	15 nM	33 nM	0.44 µM	0.24 µM	3.17 mL/min/kg	85%
O=C1NN=C(c2ccc(-c3ccc(Cl)cc3)c(OC(F)(F)F)c2)CO1 [Example 71, 5-[4′-Chloro-2-(trifluoromethoxy)biphenyl-4-yl]-3,6-dihydro-2H-1,3,4-oxadiazin-2-one]	20 nM	38 nM	> 1 µM	> 1 µM	3.17 mL/min/kg	86%
O=C1NN=C(c2ccc(-c3ccc(F)cc3F)c(F)c2)CO1 [Example 111, 5-(2,2′,4′-Trifluoro[1,1′-biphenyl]-4-yl)-3,6-dihydro-2H-1,3,4-oxadiazin-2-one]	2 nM	4 nM	0.072 µM	0.081 µM	5.33 mL/min/kg	76%
COC/C=C/c1ccc(C2=NNC(=O)OC2)cc1C(F)(F)F [Example 140, 5-{4-[3-Methoxyprop-1-en-1-yl]-3-(trifluoromethyl)phenyl}-3,6-dihydro-2H-1,3,4-oxadiazin-2-one]	1 nM	1 nM	0.058 µM	0.08 µM	8.5 mL/min/kg	61%
Cc1cc(F)ccc1-c1ccc(C2=NNC(=O)OC2)cc1F [Example 162, 5-(2,4′-Difluoro-2′-methyl[1,1′-biphenyl]-4-yl)-3,6-dihydro-2H-1,3,4-oxadiazin-2-one]	4 nM	7 nM	0.21 µM	0.12 µM	10.3 mL/min/kg	53%
O=C1NN=C(c2ccc(-c3cnn(C(F)F)c3)c(C(F)F)c2)CO1 [Example 195, 5-{3-(Difluoromethyl)-4-[1-(difluoromethyl)-1H-pyrazol-4-yl]phenyl}-3,6-dihydro-2H-1,3,4-oxadiazin-2-one]	2 nM	5 nM	0.058 µM	0.077 µM	<0.17 mL/min/kg	100%
O=C1NN=C(c2ccc(-c3ccc(F)cc3)c(C(F)F)c2)CO1 [Example 198, 5-[2-(Difluoromethyl)-4′-fluoro[1,1′-biphenyl]-4-yl]-3,6-dihydro-2H-1,3,4-oxadiazin-2-one]	6 nM	14 nM	0.17 µM	0.13 µM	7.33 mL/min/kg	67%
O=C1NN=C(c2ccc(-c3ccc(Cl)cc3)c(C(F)F)c2)CO1 [Example 199, 5-[4′-Chloro-2-(difluoromethyl)[1,1′-biphenyl]-4-yl]-3,6-dihydro-2H-1,3,4-oxadiazin-2-one]	2 nM	5 nM	0.21 µM	0.2 µM	15.7 mL/min/kg	29%
CC1(O)CN(c2ccc(C3=NNC(=O)OC3)cc2C(F)(F)F)C1 [Example 203, 5-[4-(3-Hydroxy-3-methylazetidin-1-yl)-3-(trifluoromethyl)phenyl]-3,6-dihydro-2H-1,3,4-oxadiazin-2-one]	1 nM	2 nM	0.037 µM	0.088 µM	10.2 mL/min/kg	54%
CC(C)(C)Nc1ccc(C2=NNC(=O)OC2)cc1C(F)(F)F [Example 224, 5-[4-(tert-Butylamino)-3-(trifluoromethyl)phenyl]-3,6-dihydro-2H-1,3,4-oxadiazin-2-one]	2 nM	3 nM	0.165 µM	0.2 µM	5.83 mL/min/kg	74%
NC(=O)CNc1ccc(C2=NNC(=O)OC2)cc1C(F)(F)F [Example 256, N^2-[4-(2-Oxo-3,6-dihydro-2H-1,3,4-oxadiazin-5-yl)-2-(trifluoromethyl)phenyl]glycinamide]	37 nM	63 nM	0.24 µM	0.48 µM	1.2 mL/min/kg	95%
CCC(CNc1ccc(C2=NNC(=O)OC2)cc1C(F)(F)F)OC (centres unmarked) [Example 281, 5-{4-[(2-methoxybutyl)amino]-3-(trifluoromethyl)phenyl}-3,6-dihydro-2H-1,3,4-oxadiazin-2-one]	12 nM	–	–	–	14.2 mL/min/kg	35%
O=C1NN=C(c2ccc(C3=CCNCC3)c(C(F)(F)F)c2)CO1 [Example 328, 5-[4-(1,2,3,6-tetrahydropyridin-4-yl)-3-(trifluoromethyl)phenyl]-3,6-dihydro-2H-1,3,4-oxadiazin-2-one]	47 nM	> 100 nM	0.074 µM	0.091 µM	–	–
O=C1NN=C(c2ccc(C3=CCOC3)c(C(F)F)c2)CO1 [Example 329, 5-[3-(difluoromethyl)-4-(2,5-dihydrofuran-3-yl)phenyl]-3,6-dihydro-2H-1,3,4-oxadiazin-2-one]	41 nM	64 nM	0.1 µM	0.093 µM	–	–
O=C1NN=C(c2ccc(Cl)c(C(F)(F)F)c2)CO1 [Intermediate 64, 5-[4-Chloro-3-(trifluoromethyl)phenyl]-3,6-dihydro-2H-1,3,4-oxadiazin-2-one]	29 nM	53 nM	0.61 µM	0.49 µM	–	–
O=C1NN=C(c2ccc(F)c(C(F)(F)F)c2)CO1 [Intermediate 66, 5-[4-Fluoro-3-(trifluoromethyl)phenyl]-3,6-dihydro-2H-1,3,4-oxadiazin-2-one]	56 nM	> 100 nM	> 1 µM	> 1 µM	–	–
CC(C)(C)OC(=O)NCCNc1ccc(C2=NNC(=O)OC2)cc1C(F)(F)F [Intermediate 67, tert-Butyl {2-[4-(2-oxo-3,6-dihydro-2H-1,3,4-oxadiazin-5-yl)-2-(trifluoromethyl)anilino]ethyl} carbamate]	> 100 nM	> 100 nM	0.006 µM	0.007 µM	–	–
O=C1NN=C(c2ccc(Cl)c(OC(F)(F)F)c2)CO1 [Intermediate 73, 5-[4-Chloro-3-(trifluoromethoxy)phenyl]-3,6-dihydro-2H-1,3,4-oxadiazin-2-one]	58 nM	> 100 nM	0.72 µM	> 1 µM	–	–
C[C@@H]1OC(=O)NN=C1c1ccc(Cl)c(C(F)(F)F)c1 [Intermediate 74, (6S)-5-[4-chloro-3-(trifluoromethyl)phenyl]-6-methyl-3,6-dihydro-2H-1,3,4-oxadiazin-2-one]	6 nM	11 nM	0.034 µM	0.1 µM	–	–
C[C@@H]1OC(=O)NN=C1c1ccc(F)c(C(F)(F)F)c1 [Intermediate 75, (6S)-5-(-[(4-Fluoro-3-(trifluoromethyl)phenyl)-)]-6-methyl-3,6-dihydro-2H-1,3,4-oxadiazin-2-one]	22 nM	45 nM	0.24 µM	0.71 µM	–	–
Cc1cc(C2=NNC(=O)OC2)ccc1Cl [Intermediate 76, 5-(4-Chloro-3-methylphenyl)-3,6-dihydro-2H-1,3,4-oxadiazin-2-one]	40 nM	75 nM	0.375 µM	0.13 µM	–	–
O=C1NN=C(c2ccc(Br)c(C(F)F)c2)CO1 [Intermediate 77, 5-[4-Bromo-3-(difluoromethyl)phenyl]-3,6-dihydro-2H-1,3,4-oxadiazin-2-one]	40 nM	65 nM	0.15 µM	0.33 µM	–	–
O=C1NN=C(c2ccc(Br)c(C(F)(F)F)c2)CO1 [Intermediate 78, 5-[4-bromo-3-(trifluoromethyl)phenyl]-3,6-dihydro-2H-1,3,4-oxadiazin-2-one]	8 nM	20 nM	0.14 µM	0.18 µM	–	–
